Common to all, as to experiment: inhibition of tumour cell growth, NCI panel, 48 h
Assay [1] concerns A549 NSCLC.
Assay [2] concerns HCT-116 colon.
For assay [3], the system named is HCT-15 colon.
The subject of assay [4] is SF-295 CNS.
The subject of assay [5] is COLO 205 colon.
Assay [6] has as its system SN12C renal.
In assay [7] the test system is SK-MEL-2 melanoma.
The test system of assay [8] is NCI-H522 lung.
For assay [9], the system named is SNB-19 CNS.
Assay [10] relates to HOP-62 NSCLC.

Molecules are shown by their SMILES. Where “and” joins values, the source holds several entries; their conditions need not be identical. Equal entries are not always repeated.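 Five compound concentrations were applied to cells in 96-well plates for 48 hours; endpoints were derived by simple linear interpolation of the resulting dose-response curve. GI50 = concentration required for 50% inhibition of growth. TGI: concentration producing complete growth inhibition.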

Here are results for 19 molecules from PubChem BioAssay (NCI).

Consider `O=[N+]([O-])/C(=C/C=C/c1ccccc1)c1ccccc1`, for which the GI50 in assay [1] is 2.41 µM; in assay [2], 1.88 µM; in assay [3], 1.86 µM; in assay [4], 2.56 µM; in assay [5], 1.83 µM; in [6] it was 1.85 µM. Besides, the GI50 was 1.67 µM in [7], 1.62 µM in assay [8], 3.33 µM in assay [9] and 7.29 µM in assay [10]. Further, the TGI in assay [1] worked out at 6.79 µM; in assay [2] it was 3.62 µM; in [3] it was 4.22 µM; in assay [4] it was 9.08 µM; in assay [5] it was 3.35 µM; in assay [6], 4.03 µM. The TGI was 3.93 µM in assay [7], 4.08 µM in assay [8], 10.6 µM in [9] and 21.4 µM in [10].

Consider `Cc1ncc([N+](=O)[O-])n1CCOc1ccc(C(=O)/C=C/c2ccc(C(F)(F)F)cc2)cc1`, for which the GI50 is 2.42 µM in assay [1]; 1.65 µM in [2]; 1.82 µM in [3]; 3.47 µM in [4]; 2.11 µM in [5]; 3.03 µM in assay [6]. The GI50 in [7] is 3.43 µM; in [8], 2.55 µM; in assay [9], 3.34 µM; in assay [10] it was 2.53 µM. Also, the TGI in assay [1] amounted to 8.5 µM; in assay [2], 3.34 µM; in [3], 4.09 µM; in [4] it was 13.8 µM; in assay [5] it was 4.67 µM; in assay [6], 11.6 µM. The TGI in [7] came to 13.6 µM; in assay [8] it was 7.74 µM; in [9], 15.7 µM; in assay [10], 7.29 µM.

`O=C(NCCNC1=CC(=O)c2nc3ccccc3c3ccnc1c23)c1cnccn1`: the GI50 in assay [1] is 36.3 µM; in assay [2], 19.8 µM; in assay [3], 38 µM; in [4] it was 18.9 µM; in assay [5], 52 µM; in assay [6], 49.5 µM. Besides, the GI50 in [7] is 60.5 µM; in assay [8], 44 µM; in assay [9] it was 42.2 µM; in assay [10], 18.9 µM. Besides, the TGI in assay [1], in assay [2], in assay [3], in [4], in assay [5] and in assay [6] was greater than 100 µM each time. Also, the TGI in assay [7], in [8], in [9] and in assay [10] was greater than 100 µM each time.

Turning to `C=C(c1ccc(C(=O)NCCCn2ccnc2)cc1)c1cc2c(cc1C)C(C)(C)CCC2(C)C`, the GI50 was 1.14 µM in assay [1]; 0.0398 µM in [2]; 0.118 µM in [3]; 1.31 µM in assay [4]; 1.12 µM in assay [5]; less than 0.0195 µM in assay [6]. Besides, the GI50 in assay [7] is 2.71 µM; in assay [8] it was 0.123 µM; in assay [9] it was 2.25 µM; in [10] it was 2.46 µM. Also, the TGI in assay [1] was 16.4 µM; in [2] it was 1.79 µM; in assay [3], 17 µM; in [4], 18.7 µM; in assay [5] it was 3.28 µM; in [6], 10.8 µM. For the same molecule, the TGI in assay [7] was 7.33 µM; in assay [8], 3.72 µM; in assay [9], greater than 100 µM; in [10], 11.6 µM.

For `CSc1ccc2c(c1)N(CCCN(C)C)c1ccccc1S2`, the TGI in assay [1] turned out to be 30.2 µM; in assay [2] it was 26.9 µM; in assay [3], 30.4 µM; in [4], 26.8 µM; in [5], 31.7 µM; in assay [6], 28.5 µM. Besides, the TGI in [7] was 29.5 µM; in assay [8], 26.6 µM; in [9], 30.6 µM; in assay [10], 28.4 µM.

Turning to `Fc1nc(Sc2ncnc3nc[nH]c23)nc(-c2c3ccccc3c3sc4ccccc4n23)n1`, the TGI in assay [1], in assay [2], in [3], in assay [4], in [5] and in assay [6] was greater than 100 µM in each case. In addition, the TGI in assay [7], in assay [8], in [9] and in assay [10] was greater than 100 µM each time.

Regarding `O=C([CH-]C(=O)c1ccccc1)c1ccccc1.[CH2-]C.[CH2-]C.[Tl+3]`, the GI50 was 20.7 µM in assay [1]; 9.72 µM in assay [2]; 15.4 µM in assay [3]; 15.6 µM in [4]; 26.6 µM in assay [5]; 14.4 µM in assay [6]. In addition, the GI50 is 31.6 µM in assay [7], 21.5 µM in [8], 31.2 µM in assay [9] and 22.2 µM in [10]. Also, the TGI in assay [1] is 66.3 µM; in [2], 34.2 µM; in [3], greater than 100 µM; in [4], greater than 100 µM; in assay [5], greater than 100 µM; in assay [6], greater than 100 µM. Also, the TGI in [7] was greater than 92.4 µM; in assay [8] it was greater than 85.2 µM; in assay [9], greater than 100 µM; in [10] it was greater than 90.2 µM.

Consider `CC1(O)CC2C(CC1SCc1ccccc1)C2(C)C` (centres undefined), for which the GI50 in [1] is 40.9 µM and 17.4 µM; in assay [9], 45.2 µM and 16.7 µM. The TGI in assay [1] is > 100 µM and 31.1 µM; in assay [2], 47.9 µM and 30.2 µM; in assay [3], 65 µM and 30.6 µM; in assay [4], 43.4 µM; in assay [5], 35.6 µM and 30.6 µM; in assay [6] it was 43 µM and 29.5 µM. The TGI was 33.3 µM and 26.1 µM in [7]; 29.1 µM and 25.2 µM in [8]; > 100 µM and 30.7 µM in assay [9]; 57.9 µM and 30.5 µM in assay [10].

In the case of `C#CCN(CCCOc1ccc(Cl)cc1Cl)CCCSC(=O)CCCCCN1/C(=C\C=C2/CCCC(/C=C/C3=[N+](CCCCCC(=O)[O-])c4ccccc4C3(C)C)=C2Cl)C(C)(C)c2ccccc21`, the GI50 in assay [1] was 3.22 µM; in assay [2], 1.63 µM; in assay [3], 4.12 µM; in assay [4], 1.91 µM; in assay [5], 1.41 µM; in assay [6], 0.587 µM. In addition, the GI50 in assay [7] is 1.77 µM; in [8] it was 1.16 µM; in [9], 1.12 µM; in assay [10], 2.1 µM. Also, the TGI in assay [1] was found to be 13.2 µM; in assay [2], 3.14 µM; in assay [3] it was 21.9 µM; in assay [4], 4.06 µM; in [5], 3.39 µM; in [6], 2.74 µM. For the same molecule, the TGI in [7] was determined as 4.2 µM; in assay [8], 3.34 µM; in assay [9], 3.64 µM; in [10], 5.72 µM.

With `Cc1cccc(NC(=O)CSc2nnc(-c3ccc(N=Cc4ccc(Cl)cc4)cc3)o2)c1`, the TGI in [1], in [2], in assay [3], in assay [4], in [5] and in [6] was greater than 100 µM each time. For the same molecule, the TGI in assay [7], in assay [8], in assay [9] and in assay [10] was greater than 100 µM throughout.

Regarding `O=C(/C=N/O)Nc1cccc(Cl)c1I`, the TGI in assay [1], in assay [2], in assay [3], in assay [4], in [5] and in [6] was greater than 100 µM each time. Besides, the TGI in assay [7], in assay [8], in assay [9] and in assay [10] was greater than 100 µM throughout.

Take `Clc1ccc(/C=C/c2csnn2)cc1`: the TGI in assay [1], in assay [2], in assay [3], in assay [4], in assay [5] and in [6] was greater than 100 µM in each case. The TGI in [7], in [8], in assay [9] and in [10] was greater than 100 µM throughout.

Regarding `Nc1nc2c(ncn2C2OC(CO)C(O)C2O)c(=O)[nH]1` (centres undefined), the GI50 in assay [1] was > 100 µM and 15.8 µM; in assay [2] it was greater than 100 µM; in assay [3], > 100 µM and 20.7 µM; in [5] it was greater than 100 µM; in [6], greater than 100 µM; in assay [7], greater than 100 µM. For the same molecule, in assay [8], the GI50 was greater than 100 µM. Also, the TGI was > 100 µM and 170 µM in [1]; > 100 µM and 201 µM in assay [2]; > 100 µM and 191 µM in [3]; > 100 µM and 184 µM in [4]; > 100 µM and 113 µM in assay [5]; > 100 µM and 162 µM in [6]. The TGI was > 100 µM and 158 µM in [7]; > 100 µM and 149 µM in assay [8]; > 100 µM and 21.6 µM in assay [9]; 211 µM in [10].

Regarding `c1ccc2[nH]c(-c3cscn3)nc2c1`, the TGI in [1], in [2], in assay [3], in assay [4], in assay [5] and in assay [6] was greater than 100 µM each time. The TGI in assay [7] is greater than 100 µM; in assay [8] it was greater than 100 µM; in assay [9], greater than 100 µM; in assay [10], > 100 µM and 19.6 µM.

For the molecule `O=C(/C=C/c1ccccn1)c1ccccc1`, the GI50 in assay [1] was 14.4 µM; in [2] it was 1.49 µM; in assay [3] it was 2.66 µM; in assay [4], 15.7 µM; in [5], 4.04 µM; in assay [6], 4.33 µM. Besides, the GI50 in assay [7] is 8.32 µM; in assay [8], 1.65 µM; in assay [9], 12 µM; in assay [10] it was 10.2 µM. Besides, the TGI is 29.4 µM in assay [1]; 3.77 µM in assay [2]; 12.9 µM in assay [3]; 32.2 µM in assay [4]; 14.6 µM in [5]; 17.1 µM in [6]. Further, the TGI was found to be 21 µM in assay [7], 3.1 µM in assay [8], 26.7 µM in [9] and 22 µM in [10].

`Cc1nc(Nc2ccc(Cl)c(Cl)c2)sc1C(/C=C/c1ccc2c(c1)OCO2)=N/Nc1ccc([N+](=O)[O-])cc1[N+](=O)[O-]`: the TGI in assay [1], in [2], in assay [3], in [4], in [5] and in assay [6] was greater than 100 µM in each case. The TGI is greater than 100 µM in [7], greater than 100 µM in [8], greater than 100 µM in assay [9] and greater than 84 µM in assay [10].

Consider `O=C(O)c1cc2ccc(Cl)cc2c(O)c1C1=CCCCC1`, for which the TGI in assay [1], in assay [2], in assay [3], in assay [4], in [5] and in assay [6] was greater than 100 µM each time. Moreover, the TGI is 63.8 µM in assay [7], 92.9 µM in assay [8], greater than 100 µM in assay [9] and greater than 100 µM in assay [10].

For `CNC(=O)N(CCCCC(NC(C)=O)C(=O)NCc1ccccc1)Cc1ccccc1` (centres undefined), the TGI in assay [1], in assay [2], in assay [3], in assay [4], in assay [5] and in assay [6] was greater than 100 µM each time. Besides, the TGI in assay [7], in [8], in assay [9] and in assay [10] was greater than 100 µM in each case.

Turning to `COc1cc(/C=C/C(=O)/C=C/c2ccc(-n3ccnc3)cc2)ccc1O`, the GI50 was 3.19 µM in assay [1]; 1.45 µM in assay [2]; 2.48 µM in assay [3]; 14 µM in assay [4]; 3.26 µM in assay [5]; 2.41 µM in assay [6]. The GI50 in assay [7] is 20.8 µM; in assay [8], 4.98 µM; in [9], 4.37 µM; in assay [10], 3.12 µM. In addition, the TGI in [1] came to 15.6 µM; in assay [2], 2.93 µM; in [3], 6.89 µM; in assay [4] it was 33 µM; in assay [5] it was 10.1 µM; in assay [6] it was 7.53 µM. In addition, the TGI was 55.8 µM in assay [7], 18.9 µM in [8], 47.7 µM in assay [9] and 11.8 µM in assay [10].
